Data set [1] in a line: in vitro. As to conditions: for hHEPs % remaining: 1 μM. The procedure:
Human Hepatocyte metabolic stability: Human hepatocytes (X008000, BioIVT) were freshly thawed prior to the incubations with test compound. Hepatocytes were transferred to 50 mL conical tubes and centrifuged 10 min at 100 g. Thawing medium was removed and replaced by preheated (37° C.) incubation medium (William's E Medium supplemented with GlutaMAX), to yield a hepatocyte density ˜1.5×10^6 cells/mL. Cell viability was determined using AO/PI staining and hepatocytes were diluted using incubation medium to a working density of 0.5×10^6 viable cells/mL. 198 μL of hepatocytes were added into each well of a 96-well plate and placed in the incubator to allow the hepatocytes to warm for 10 minutes. 2 μL test compound or positive control was placed into respective wells of the 96-well plate (final concentration test compound 1 μM) to start the reaction. The plate was returned to the incubator and 25 μL aliquots of the well contents were removed at time points of 0, 15, 30, 60, 90 and 120 minutes. The aliquots were mixed with 6 volumes (150 μL) of acetonitrile containing internal standards (100 nM alprazolam, 200 nM caffeine, and 100 nM tolbutamide) to terminate the reaction. The plate was centrifuged for 20 minutes at 3,200 g. Aliquots of 150 μL of the supernatants were used for LC/MS/MS analysis. All incubations were performed in duplicate.
(§1) Peak areas were determined from extracted ion chromatograms to determine the in vitro half-life (t½) of parent compound by regression analysis of the percent parent disappearance vs. time curve. The in vitro half-life (in vitro t½) was determined from the slope value (in vitro t½=−0.693/k). All calculations were carried out using Microsoft Excel.

The target in data set [2] is recombinant human DHODH (Homo sapiens (Human), UniProt Q02127). The experiment in a line: DHODH enzyme assay (Assay A), DCIP absorbance. It is filed as biochemical. The settings on record: bins ≥10 nM-<100 nM and <10 nM; read-out: IC50 DHODH inhibition activity. The method, then:
Inhibition of human dihydroorotate dehydrogenase (DHODH) by example compounds as described herein was determined using one of two assays as described below.
DHODH enzyme assays were performed with 6 nM recombinant human DHODH (purified essentially as described by Walse et al., Biochemistry, 47, 8929-8936 (2008)). The reaction mixture consisted of 1 mM DL-dihydroorotic acid (#D7003, Sigma-Aldrich), 100 μM 3,4-dimethoxy-5-methyl-p-benzoquinone (#D9150, Sigma-Aldrich), and 100 μM 2,6-dichlorophenolindophenol sodium salt (DCIP) (#D1878, Sigma-Aldrich) in enzyme buffer (50 mM Tris-HCl pH 8.0, 0.1% Triton X-100, 150 mM KCl). A stock solution of 20 mM DCIP was prepared in enzyme buffer and filtered through Whatman paper just before use. Reactions were performed in a total volume of 100 μL, consisting of 1 μL of compound, 49 μL of enzyme and 50 μL of reaction mixture. Loss in absorbance by chromogen DCIP was measured at 595 nm following a 70 minute incubation at 32° C.

Data set [3] has as its system MOLM-13 cells. The experiment in a line: MOLM-13 cell viability (Assay B), Cell Titer-Glo. It is filed as cell-based. The settings on record: for IC50: Homo sapiens, read-out: IC50 MOLM13 inhibition activity. The method, then: MOLM-13 cells (an acute myeloid leukemia cell line) were plated in RPMI supplied with 10% FBS and 1% Pen/Strep in 384-well plates at 1,000 cells per well on day 0. On day 1, treatment of the cells with compound (concentration range 10E-5 and 6E-12 M) was initiated in the presence or absence of 100 μM uridine. After 72 hours incubation of the cells with or without test compound, the number of viable cells per well was assessed by Cell Titer-Glo Luminescent Cell Viability Assay (Promega, Madison, WI, USA). […] Each condition was tested in duplicate and the potency of test compounds was determined from two independent experiments.
On the technique in general: Cellular ATP, detected with luciferase, serves as a proxy for viable cell number.

Data set [4] can be described thus: in vitro. As to conditions: for HLM % remaining: % remaining at 60 min, 1 μM; for half-life at 1 μM: both, human. The method, then:
Human Liver Microsomal metabolic stability: The microsomal metabolic stability assay utilized pooled human liver microsomes (mixed gender, BD Gentest), with supplemented cofactors NADPH and UDPGA (Solarbio S&T Co., LTD). Two separate experiments were performed as follows: • a) With cofactors (NADPH & UDPGA): 25 μL of 10 mM NADPH and 25 μL of 20 mM UDPGA were added to 197.5 μL of reaction solution (phosphate buffer (final concentration in assay 100 mM), MgCl2 (final concentration in assay (5 mM)), alamethacin (final concentration in assay 0.025 mg/mL) and microsomes (final concentration in assay 0.5 mg/mL). • b) Without cofactors (NADPH & UDPGA): 50 μL of H2O was added to 197.5 μL of reaction solution.
The mixture was pre-warmed at 37° C. for 10 minutes. The reaction was started with the addition of 2.5 μL of 100 μM control compound or test compound solutions. Diclofenac was used as positive control in this study. The final concentration of control compound and test compounds was 1 μM. Aliquots of 25 μL were taken from the reaction solution at 0.5, 5, 15, 30 and 60 minutes. The reaction was stopped by the addition of 5 volumes of cold acetonitrile containing internal standards. Samples were centrifuged at 3,220 g for 40 minutes. An aliquot of 100 μL of the supernatant was mixed with 100 μL of ultra-pure H2O and then used for LC-MS/MS analysis. Peak areas were determined from extracted ion chromatograms. Percent parent remaining was calculated from the area ratio of test compound. The slope value was determined by linear regression of the natural logarithm of percent parent remaining versus incubation time curve.
as §1

[5] abbreviates: MOLM-13, 72 hours, bins ≥10 nM-<100 nM and <10 nM.

Where two headings read alike, the source gives them in different places. Bounds are passed on as bounds.

recombinant human DHODH, sequence (Q02127 whole entry): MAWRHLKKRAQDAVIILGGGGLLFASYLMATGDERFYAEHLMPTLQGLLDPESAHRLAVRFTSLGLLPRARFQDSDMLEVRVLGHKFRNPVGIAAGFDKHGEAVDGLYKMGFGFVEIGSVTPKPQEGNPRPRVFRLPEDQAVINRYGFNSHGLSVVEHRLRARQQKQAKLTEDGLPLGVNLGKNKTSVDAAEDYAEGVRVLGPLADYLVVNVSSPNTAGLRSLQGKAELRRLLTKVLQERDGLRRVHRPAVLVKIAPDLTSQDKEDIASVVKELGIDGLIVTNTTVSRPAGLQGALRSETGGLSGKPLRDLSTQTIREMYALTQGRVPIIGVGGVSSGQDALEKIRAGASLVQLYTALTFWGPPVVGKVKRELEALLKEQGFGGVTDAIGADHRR

One may read the half-life as the time in which the quantity being followed falls by half. The low end stands for rapid decline, the high end for slow decline. For orientation: IC50 means the concentration at which inhibition is half-maximal. `O=C(N[C@@H]1COCc2c1cnn2-c1ccccc1F)c1ncn2c1CCCC2` (single isomer, unassigned) [Ex-3]: the half-life at 1 μM in data set [1] (human, hepatocytes) is 598 min; in data set [4] (pooled liver microsomes) it was greater than 365 min. Moreover, in data set [1] (human, hepatocytes, 2 h), the hHEPs % remaining was 87%. Also, the IC50 in data set [2] and in data set [3] (setting [5]) was 10 to 100 nM throughout. For the same molecule, in data set [4], the HLM % remaining is reported as 92%.

Turning to `O=C(N[C@@H]1COCc2c1cnn2-c1ccccc1F)c1ncc2n1CCCC2` (single isomer, unassigned) [Ex-6], the half-life at 1 μM in data set [1] (human, hepatocytes) was found to be 294 min; in data set [4] (pooled liver microsomes), 285 min. Also, in data set [1] (human, hepatocytes, 2 h), the hHEPs % remaining was 87%. The IC50 in data set [2] and in data set [3] (setting [5]) was 10 to 100 nM each time. In data set [4], this molecule displayed an HLM % remaining of 85%.

On to `O=C(N[C@@H]1COCc2c1cnn2-c1c(F)cccc1Cl)c1ncn2c1CCCC2` (single isomer, unassigned) [Ex-11], for which, in data set [1] (% remaining at 120 min), the hHEPs % remaining came to 90%. The half-life at 1 μM in data set [1] (human, hepatocytes) is greater than 600 min; in data set [4] (pooled liver microsomes), greater than 365 min. Further, the half-inhibitory concentration (IC50) in data set [2] and in data set [3] (setting [5]) was less than 10 nM in each case. The “MOLM13 cell growth and/or viability (FIG. 2)” value in data set [3] (absence of uridine) was “reduce MOLM13 cell growth and/or viability”. The “effect on MOLM13 cell growth and/or viability on addition of excess uridine (FIG. 2)” value in data set [3] (presence of 100 μM uridine) is “largely prevented”. This molecule yielded an HLM % remaining in data set [4] of 93%.

Consider `O=C(N[C@@H]1COCc2c1cnn2-c1c(Cl)cccc1Cl)c1ncn2c1CCCC2` (single isomer, unassigned) [Ex-13], for which the hHEPs % remaining in data set [1] (% remaining at 120 min) was 95%. Besides, the half-life at 1 μM in data set [1] (human, hepatocytes) is greater than 600 min; in data set [4] (pooled liver microsomes) it was greater than 365 min. The IC50 in data set [2] and in data set [3] (setting [5]) was less than 10 nM in each case. For the same molecule, the HLM % remaining in data set [4] is 88%.

Turning to `Cc1cccc(Cl)c1-n1ncc2c1COC[C@H]2NC(=O)c1ncn2c1CCCC2` [Ex-34, (S)—N-(1-(2-chloro-6-methylphenyl)-1,4,5,7-tetrahydropyrano[3,4-c]pyrazol-4-yl)-5,6,7,8-tetrahydroimidazo[1,5-a]pyridine-1-carboxamide], the hHEPs % remaining in data set [1] (% remaining at 120 min) is on record as 100%. Also, the half-life at 1 μM in data set [1] (human, hepatocytes) was greater than 600 min; in data set [4] (microsomes) it was 337 min. Also, the IC50 is less than 10 nM in data set [2] and less than 10 nM in data set [3] (MOLM-13, 72 h). The same molecule came in with an HLM % remaining in data set [4] of 100%.

Consider `CCc1c(C(=O)N[C@@H]2COCc3c2cnn3-c2ccccc2F)ncn1C` [Ex-41, (S)-5-ethyl-N-(1-(2-fluorophenyl)-1,4,5,7-tetrahydropyrano[3,4-c]pyrazol-4-yl)-1-methyl-1H-imidazole-4-carboxamide], for which, in data set [1] (% remaining at 120 min), the hHEPs % remaining was 100%. Further, the half-life at 1 μM in data set [1] (human, hepatocytes) was greater than 600 min; in data set [4] (pooled liver microsomes) it was greater than 365 min. Also, the half-inhibitory concentration (IC50) in data set [2] and in data set [3] (setting [5]) was 10 to 100 nM throughout. The molecule also came in with an HLM % remaining in data set [4] of 100%.

Consider `O=C(N[C@@H]1COCc2c1cnn2-c1ccccc1F)c1n[nH]c2c1CCCC2` [Ex-42, (S)—N-(1-(2-fluorophenyl)-1,4,5,7-tetrahydropyrano[3,4-c]pyrazol-4-yl)-4,5,6,7-tetrahydro-1H-indazole-3-carboxamide], for which, in data set [1] (% remaining at 120 min), the hHEPs % remaining worked out at 76%. Further, the half-life at 1 μM turned out to be 326 min in data set [1] (human, hepatocytes) and 236 min in data set [4] (pooled liver microsomes). Also, the HLM % remaining in data set [4] came to 85%.

As to `O=C(N[C@@H]1COCc2c1cnn2-c1ccccc1F)c1noc2c1CCCC2` [Ex-43, (S)—N-(1-(2-fluorophenyl)-1,4,5,7-tetrahydropyrano[3,4-c]pyrazol-4-yl)-4,5,6,7-tetrahydrobenzo[d]isoxazole-3-carboxamide], in data set [1] (% remaining at 120 min), the hHEPs % remaining was determined as 93%. Further, the half-life at 1 μM is greater than 600 min in data set [1] (human, hepatocytes) and greater than 365 min in data set [4] (pooled liver microsomes). In addition, the HLM % remaining in data set [4] came to 92%.

With `CCc1c(C(=O)N[C@@H]2COCc3c2cnn3-c2ccccc2F)n[nH]c1C` [Ex-44, (S)-4-ethyl-N-(1-(2-fluorophenyl)-1,4,5,7-tetrahydropyrano[3,4-c]pyrazol-4-yl)-5-methyl-1H-pyrazole-3-carboxamide], the half-life at 1 μM in data set [1] (human, hepatocytes) was 561 min; in data set [4] (pooled human liver microsomes) it was greater than 365 min. Moreover, the HLM % remaining in data set [4] worked out at 92%.

As for `Cc1cnc(C(=O)N[C@@H]2COCc3c2cnn3-c2ccccc2F)cc1C` [Ex-45, (S)—N-(1-(2-fluorophenyl)-1,4,5,7-tetrahydropyrano[3,4-c]pyrazol-4-yl)-4,5-dimethylpicolinamide], the hHEPs % remaining in data set [1] (% remaining at 120 min) was found to be 72%. Moreover, the half-life at 1 μM in data set [1] (human, hepatocytes) worked out at 286 min; in data set [4] (pooled liver microsomes), 274 min. This molecule showed an HLM % remaining in data set [4] of 88%.

`O=C(N[C@@H]1COCc2c1cnn2-c1c(F)cccc1Cl)c1n[nH]c2c1CCCC2` [Ex-46, (S)—N-(1-(2-chloro-6-fluorophenyl)-1,4,5,7-tetrahydropyrano[3,4-c]pyrazol-4-yl)-4,5,6,7-tetrahydro-1H-indazole-3-carboxamide] had a hHEPs % remaining in data set [1] (% remaining at 120 min) of 89%. In addition, the half-life at 1 μM in data set [1] (human, hepatocytes) was greater than 600 min; in data set [4] (pooled liver microsomes), greater than 365 min. The half-maximal inhibitory concentration (IC50) in data set [2] and in data set [3] (setting [5]) was 10 to 100 nM each time. Further, the HLM % remaining in data set [4] is reported as 90%.

In the case of `O=C(N[C@@H]1COCc2c1cnn2-c1c(F)cccc1Cl)c1ncc2n1CCCC2` [Ex-47, (S)—N-(1-(2-chloro-6-fluorophenyl)-1,4,5,7-tetrahydropyrano[3,4-c]pyrazol-4-yl)-5,6,7,8-tetrahydroimidazo[1,5-a]pyridine-3-carboxamide], the hHEPs % remaining in data set [1] (% remaining at 120 min) is on record as 84%. Moreover, the half-life at 1 μM in data set [1] (human, hepatocytes) came out at 540 min; in data set [4] (pooled liver microsomes), 133 min. Also, the IC50 in data set [2] and in data set [3] (setting [5]) was less than 10 nM throughout. Moreover, in data set [4], the HLM % remaining amounted to 75%.

Regarding `Cc1cnc(C(=O)N[C@@H]2COCc3c2cnn3-c2c(F)cccc2Cl)cc1C` [Ex-48, (S)—N-(1-(2-chloro-6-fluorophenyl)-1,4,5,7-tetrahydropyrano[3,4-c]pyrazol-4-yl)-4,5-dimethylpicolinamide], in data set [1] (% remaining at 120 min), the hHEPs % remaining is 82%. In addition, the half-life at 1 μM stood at 358 min in data set [1] (human, hepatocytes) and 365 min in data set [4] (pooled liver microsomes). The IC50 in data set [2] and in data set [3] (setting [5]) was 10 to 100 nM each time. In data set [4], the HLM % remaining is reported as 96%.

For the origin of these results see patent US20250388602A1 (Genase Therapeutics B.V., priority 2022, published 2025).
